In patent US12643887B2, “Heterocyclic derivatives with cardiomyocyte proliferation activity for treatment of heart diseases” (Tongji University, priority 2019, dated 2026):
Like-named read-outs stand apart in the source and are kept apart here.

What was measured:
human DYRK1A = molecular target: T1, human DYRK1A (Homo sapiens, UniProt Q13627); assay: DYRK1A enzyme assay (ADP-Glo); assay type: biochemical
T1 construct: Recombinant full-length DYRK1A (expressed in E. Coli cells with an N-terminal GST tag); GST (N); purchased SignalChem D09-10G; host or cells: E. coli
Summary of the method: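 GST-tagged full-length human DYRK1A (E. coli, 3 nM) preincubated 30 min at 25 °C with compound in 40 mM Tris pH 7.5, 20 mM MgCl2, 0.1 mg/ml BSA, 50 μM DTT, then reacted 60 min with 20 μM DYRKtide and 60 μM ATP. ADP-Glo luminescence; IC50 by four-parameter logistic fit.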

human HIPK1 = molecular target: T2, human HIPK1 (Homo sapiens, UniProt Q86Z02); assay: HIPK1 enzyme assay (ADP-Glo); assay type: biochemical
T2 construct: Recombinant human HIPK1 (156-555); GST (N); purchased SignalChem H03-11G; host or cells: Sf9 insect cells
Summary of the method: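 Recombinant GST-tagged HIPK1 (156-555, Sf9), 4 nM, preincubated 30 min at 25° C with compound in Tris pH 7.5/MgCl2/BSA/DTT, then reacted 90 min with 0.05 mg/ml MBP and 5 μM ATP. ADP formed read by ADP-Glo luminescence; IC50 from four-parameter logistic fit of % inhibition versus Max/Min controls.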

[1] = ADP-Glo, ATP 60 μM, read-out: DYRK1A IC50
[2] = ADP-Glo, ATP 5 μM, read-out: HIPK1 IC50

T2 sequence (Q86Z02 156-555): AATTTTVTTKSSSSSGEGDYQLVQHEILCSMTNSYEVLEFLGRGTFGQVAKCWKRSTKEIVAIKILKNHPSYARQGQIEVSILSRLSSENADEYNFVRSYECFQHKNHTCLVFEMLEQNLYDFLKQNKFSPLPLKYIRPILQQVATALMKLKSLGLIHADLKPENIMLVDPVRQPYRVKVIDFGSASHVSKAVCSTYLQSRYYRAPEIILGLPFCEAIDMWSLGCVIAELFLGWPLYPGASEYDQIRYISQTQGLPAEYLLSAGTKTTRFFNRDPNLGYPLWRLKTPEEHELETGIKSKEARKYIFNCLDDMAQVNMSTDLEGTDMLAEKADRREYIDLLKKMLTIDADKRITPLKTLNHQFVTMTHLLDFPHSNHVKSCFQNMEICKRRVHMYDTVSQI

Row | IC50 (human DYRK1A; [1]) [nM] | IC50 (human HIPK1; [2]) [nM] | Compound | IC50 (human DYRK1A) [nM] | IC50 (human HIPK1) [nM]
1 | – | – | CC(=O)N(C1=N/C(=C\c2ccc3c(c2)OCO3)C(=O)N1)c1ccccc1 [Example 5, (Z)—N-(4-(benzo[d][1,3]dioxol-5-ylmethylene)-5-oxo-4,5-dihydro-1H-imidazol-2-yl)-N-phenylacetamide] | < 100 | 100 to 1000
2 | < 100 | > 10000 | Cc1nc2ccc(NC3=N/C(=C\c4ccc5ncsc5c4)C(=O)N3)cc2s1 [Example 90, (Z)-5-(benzo[d]thiazol-6-ylmethylene)-2-((2-methylbenzo[d]thiazol-6-yl)amino)-3,5-dihydro-4H-imidazol-4-one] | – | –
3 | 1000 to 10000 | 1000 to 10000 | CN(C1=N/C(=C\c2ccc3ncsc3c2)C(=O)N1)c1ccc2c(c1)ncn2C [Example 86, (Z)-5-(benzo[d]thiazol-6-ylmethylene)-2-(methyl(1-methyl-1H-benzo[d]imidazol-5-yl)amino)-3,5-dihydro-4H-imidazol-4-one] | – | –
4 | – | > 10000 | O=C1NC(Nc2ccc3sccc3c2)=N/C1=C\c1ccc2ncsc2c1 [Example 101, (Z)-2-(benzo[b]thiophen-5-ylamino)-5-(benzo[d]thiazol-6-ylmethylene)-3,5-dihydro-4H-imidazol-4-one] | – | –
5 | < 100 | 100 to 1000 | Cn1cnc2ccc(NC3=N/C(=C\c4ccc5ncsc5c4)C(=O)N3)cc21 [Example 93, (Z)-5-(benzo[d]thiazol-6-ylmethylene)-2-((1-methyl-1H-benzo[d]imidazol-6-yl)amino)-3,5-dihydro-4H-imidazol-4-one] | – | –
6 | 100 to 1000 | > 10000 | O=C1NC(N(Cc2ccccc2)c2ccc3ncsc3c2)=N/C1=C\c1ccc2ncsc2c1 [Example 99, (Z)-2-(benzo[d]thiazol-6-yl(benzyl)amino)-5-(benzo[d]thiazol-6-ylmethylene)-3,5-dihydro-4H-imidazol-4-one] | – | –
7 | 100 to 1000 | 100 to 1000 | O=C1NC(Nc2ccc3ncsc3c2)=N/C1=C\c1cncs1 [Example 92, (Z)-2-(benzo[d]thiazol-6-ylamino)-5-(thiazol-5-ylmethylene)-3,5-dihydro-4H-imidazol-4-one] | – | –
8 | > 10000 | > 10000 | CN(C1=N/C(=C\c2ccc3[nH]ccc3c2)C(=O)N1)c1ccc2ncsc2c1 [Example 87, (Z)-5-((1H-indol-5-yl)methylene)-2-(benzo[d]thiazol-6-yl(methyl)amino)-3,5-dihydro-4H-imidazol-4-one] | – | –
9 | 100 to 1000 | > 10000 | CC(C)Nc1nc2ccc(NC3=N/C(=C\c4ccc5ncsc5c4)C(=O)N3)cc2s1 [Example 100, (Z)-5-(benzo[d]thiazol-6-ylmethylene)-2-((2-(isopropylamino)benzo[d]thiazol-6-yl)amino)-3,5-dihydro-4H-imidazol-4-one] | – | –
10 | > 10000 | > 10000 | O=C1NC(=S)N/C1=C\c1ccc2sccc2c1 [Example 96, (Z)-5-(benzo[b]thiophen-5-ylmethylene)-2-thioxoimidazolidin-4-one] | – | –
11 | > 10000 | > 10000 | O=C1NC(Nc2ccc3ncsc3c2)=N/C1=C\c1ccc2cn[nH]c2c1 [Example 95, (Z)-5-((1H-indazol-6-yl)methylene)-2-(benzo[d]thiazol-6-ylamino)-3,5-dihydro-4H-imidazol-4-one] | – | –
12 | 100 to 1000 | 1000 to 10000 | COCCN(C1=N/C(=C\c2ccc3ncsc3c2)C(=O)N1)c1ccc2ncsc2c1 [Example 89, (Z)-2-(benzo[d]thiazol-6-yl(2-methoxyethyl)amino)-5-(benzo[d]thiazol-6-ylmethylene)-3,5-dihydro-4H-imidazol-4-one] | – | –
13 | – | 100 to 1000 | O=C1NC(Nc2ccc3nc[nH]c3c2)=N/C1=C\c1ccc2ncsc2c1 [Example 97, (Z)-2-((1H-benzo[d]imidazol-6-yl)amino)-5-(benzo[d]thiazol-6-ylmethylene)-3,5-dihydro-4H-imidazol-4-one] | – | –
14 | 100 to 1000 | > 10000 | CN(C1=N/C(=C\c2ccc3ncccc3c2)C(=O)N1)c1ccc2ncsc2c1 [Example 85, (Z)-2-(benzo[d]thiazol-6-yl(methyl)amino)-5-(quinolin-6-ylmethylene)-3,5-dihydro-4H-imidazol-4-one] | – | –
15 | < 100 | > 10000 | CN1C(=O)/C(=C/c2ccc3ncsc3c2)N=C1Nc1ccc2ncsc2c1 [Example 88, (Z)-2-(benzo[d]thiazol-6-ylamino)-5-(benzo[d]thiazol-6-ylmethylene)-3-methyl-3,5-dihydro-4H-imidazol-4-one] | – | –
16 | – | > 10000 | O=C1NC(Nc2ccc3ncsc3c2)=N/C1=C\c1ccc2nccnc2c1 [Example 94, (Z)-2-(benzo[d]thiazol-6-ylamino)-5-(quinoxalin-6-ylmethylene)-3,5-dihydro-4H-imidazol-4-one] | – | –

Row | Compound | IC50 (human DYRK1A; [1]) [nM] | IC50 (human HIPK1; [2]) [nM] | IC50 (human DYRK1A) [nM] | IC50 (human HIPK1) [nM]
17 | CC(=O)N(C1=N/C(=C\c2ccc3ncsc3c2)C(=O)N1)c1ccc2ncsc2c1 [Example 91, (Z)—N-(benzo[d]thiazol-6-yl)-N-(4-(benzo[d]thiazol-6-ylmethylene)-5-oxo-4,5-dihydro-1H-imidazol-2-yl)acetamide] | < 100 | 100 to 1000 | – | –
18 | Nc1ccc(NC2=N/C(=C\c3ccc4ncsc4c3)C(=O)N2)cc1 [Example 98, (Z)-2-((4-aminophenyl)amino)-5-(benzo[d]thiazol-6-ylmethylene)-3,5-dihydro-4H-imidazol-4-one] | – | 100 to 1000 | – | –
19 | CCN(C1=N/C(=C\c2ccc3c(c2)OCO3)C(=O)N1)c1ccccc1 [Example 4, (Z)-5-(benzo[d][1,3]dioxol-5-ylmethylene)-2-(ethyl(phenyl)amino)-3,5-dihydro-4H-imidazol-4-one] | 100 to 1000 | > 10000 | – | –
